# Read-outs that look alike come from different tables or passages of the source.
# Experiments:
# [1] = Phase I metabolic stability in rat liver microsomes (with NADPH); type: in vitro ADME; conditions: pH 7.4, presence of NADPH, mean ± SD, n = 3
# Experimental: (§1) We evaluated the Phase I metabolic stability of compounds 2−7 and 14−19 using rat and human liver microsomes, as previously described.[45]
# (§2) Phase I metabolic stability assays were conducted using rat and human liver microsomes as previously described[45],[70] with minor modifications. In brief, the reactions were carried out with 100 mM potassium phosphate buffer, pH 7.4, in the presence of NADPH regenerating system (1.3 mM NADPH, 3.3 mM glucose 6-phosphate, 3.3 mM MgCl2, 0.4 U/mL glucose-6-phosphate dehydrogenase, 50 μM sodium citrate). Negative controls without cofactors were assessed to determine the non-CYP-mediated metabolism. Compound disappearance was monitored over time using a liquid chromatography and tandem mass spectrometry (LC/MS) method. All reactions were performed in triplicate.
# (§3) Chromatographic analysis was performed on a Dionex ultra high-performance LC system coupled with Q Exactive Focus orbitrap mass spectrometer (Thermo Fisher Scientific Inc., Waltham MA). Separation was achieved using Agilent Eclipse Plus column (100 × 2.1 mm^2 i.d.; maintained at 35 °C) packed with a 1.8 μm C18 stationary phase. […] The total run time for each analyte was 6.5 min. Pumps were operated at a flow rate of 0.3 mL/min. The mass spectrometer controlled by Xcalibur software 4.0.27.13 (Thermo Scientific) was operated with a HESI ion source in positive ionization mode. Compounds were identified in the full-scan mode (from m/z 50 to 750) by comparing t = 0 samples with t = 30 min and t = 60 min samples.
# [2] = Phase I metabolic stability in human liver microsomes (with NADPH); type: in vitro ADME; conditions: pH 7.4, presence of NADPH, mean ± SD, n = 3
# Experimental: as §1, §2, §3
# human D4R [3] = biological target: T1, human D4R (Homo sapiens, UniProt P21917); set-up: host or cells: CHO-K1; method as in PMID 30883109; conditions: previously reported, cited from earlier work
# T1 sequence (P21917 1-419): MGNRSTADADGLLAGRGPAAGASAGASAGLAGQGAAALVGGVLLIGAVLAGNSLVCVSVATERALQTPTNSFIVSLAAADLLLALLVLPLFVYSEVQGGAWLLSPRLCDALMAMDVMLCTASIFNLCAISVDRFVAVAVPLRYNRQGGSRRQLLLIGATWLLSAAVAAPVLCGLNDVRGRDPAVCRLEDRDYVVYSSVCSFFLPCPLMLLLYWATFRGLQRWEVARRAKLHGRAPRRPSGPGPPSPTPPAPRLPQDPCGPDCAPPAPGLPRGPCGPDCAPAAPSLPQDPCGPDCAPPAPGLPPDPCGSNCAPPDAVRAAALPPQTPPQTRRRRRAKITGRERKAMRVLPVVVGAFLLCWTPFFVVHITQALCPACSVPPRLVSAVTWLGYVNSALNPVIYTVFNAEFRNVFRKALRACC
# human D3R [4] = biological target: T2, human D3R (Homo sapiens, UniProt P35462); set-up: host or cells: CHO-K1; method as in PMID 30883109; conditions: previously reported, cited from earlier work
# human D2R long isoform [5] = biological target: T3, human D2R long isoform (Homo sapiens, UniProt P14416); set-up: host or cells: CHO-K1; method as in PMID 30883109; conditions: antagonist mode; previously reported; cited from earlier work
# human D2R long isoform [6] = biological target: T3, human D2R long isoform; assay: DiscoverX PathHunter β-arrestin recruitment assay, D2R
# D5 = biological target: T4, D5 (Homo sapiens, UniProt P21918); assay: PDSP primary screen, D5; type: binding; conditions: 10 µM compound
# T4 construct: Psychoactive Drug Screening Program (PDSP)
# Text: (§4) Receptor Primary Secondary Primary Secondary Primary Secondary Primary Secondary screen assay screen assay screen assay screen assay […]
# (§5) inhibition in primary assessment.
# human D4R [7] = biological target: T1, human D4R; conditions: for D4R Ant. (%): cAMP, antagonist mode, 10 μM forskolin and 10 nM dopamine, normalized to spiperone
# human D3R [8] = biological target: T2, human D3R; assay: DiscoverX PathHunter β-arrestin recruitment assay, D3R
# human D4R [9] = biological target: T1, human D4R; assay: DiscoverX PathHunter β-arrestin recruitment assay, D4R; conditions: for D4R Ant. (%): antagonist mode, EC80 dopamine (1 μM), normalized to spiperone
# [10] = Pharmacokinetics study in rats (plasma and brain); type: in vivo, Sprague−Dawley rats; conditions: rat, 5 mg/kg IP
# Experimental: Given their adequate in vitro stability profiles, we next evaluated the in vivo pharmacokinetic profiles of 14, 15, 17, and 18 in rats. Sprague−Dawley rats were dosed with 5 mg/kg (14, 15, 17) or 10 mg/kg (18), i.p., and plasma and brain levels of each drug were measured 0−6 h postdose.
# All animal experiments were performed following the protocols evaluated and approved by the Animal Care and Use Committee at Johns Hopkins University (Ethics Approval Number: RA24M403). Pharmacokinetic studies in Sprague−Dawley (SD) rats were conducted according to protocols approved. SD rats obtained from Harlan were maintained on a 12 h light−dark cycle with ad libitum access to food and water. Test compound was administered via i.p. injection at a dose of 10 mg/kg (100% saline vehicle, 10 mL/kg volume). The rats were sacrificed at specified time points (0.25, 0.5 h, 1, 2, 4, and 6 h) post drug administration. For the collection of plasma and brain tissue, animals were euthanized with CO2, and blood samples were collected in heparinized microtubes by cardiac puncture. Brains were dissected and immediately flash-frozen (−80 °C). Blood samples were spun at 2000g for 15 min, and plasma was removed and stored at −80 °C until analysis (as described below).
# Quantitation of triazole analogs 14, 15, 17, and 18 was performed using liquid chromatography with tandem mass spectrometry (LC/MS-MS) methods. Briefly, calibration standards were prepared using respective tissue (naïve plasma and brain) with additions of the test compounds. For quantifying the test compounds in the pharmacokinetic samples, plasma samples (20 μL) were processed using a single liquid extraction method by addition of 100 μL of acetonitrile containing internal standard (losartan: 0.5 μM), followed by vortex-mixing for 30 s and then centrifugation at 10,000g for 10 min at 4 °C. Brain tissues were diluted 1:5 w/v with acetonitrile containing losartan (0.5 μm) and homogenized, followed by vortex-mixing and centrifugation at 10,000g for 10 min at 4 °C. A 50 μL aliquot of the supernatant was diluted with 50 μL of water and transferred to 250 μL polypropylene autosampler vials sealed with Teflon caps. Two μL of the sample was injected into the LC/MS/MS system for analysis. Chromatographic analysis was performed using an Accela ultra high-performance system consisting of an analytical pump and an autosampler coupled with a TSQ Vantage mass spectrometer. […] The mobile phase consisted of 0.1% formic acid in acetonitrile and 0.1% formic acid in water with gradient elution, starting with 10% organic phase (from 0 to 1 min) linearly increasing to 95% (from 1 to 2 min), and re-equilibrating to 10% by 3 min. The total run time for each analyte was 3.5 min. Pumps were operated at a flow rate of 0.4 mL/min. […] Plasma concentrations (nmol/mL) as well as brain tissue concentrations (nmol/g) were determined and plots of mean plasma concentration versus time were constructed. Noncompartmental analysis modules in Phoenix WinNonlin version 7.0 (Certara USA, Inc., Princeton, NJ) were used to quantify exposures (AUC0−t) and half-life (t1/2).
# D1 = biological target: T5, D1 (Homo sapiens, UniProt P21728); assay: PDSP primary screen and secondary assay, D1; type: binding; conditions: 10 µM compound
# T5 construct: Psychoactive Drug Screening Program (PDSP)
# Text: as §4, §5
# [11] = antagonist mode, EC80 dopamine (1 μM), normalized to spiperone
# T2 sequence (P35462 whole entry, canonical isoform): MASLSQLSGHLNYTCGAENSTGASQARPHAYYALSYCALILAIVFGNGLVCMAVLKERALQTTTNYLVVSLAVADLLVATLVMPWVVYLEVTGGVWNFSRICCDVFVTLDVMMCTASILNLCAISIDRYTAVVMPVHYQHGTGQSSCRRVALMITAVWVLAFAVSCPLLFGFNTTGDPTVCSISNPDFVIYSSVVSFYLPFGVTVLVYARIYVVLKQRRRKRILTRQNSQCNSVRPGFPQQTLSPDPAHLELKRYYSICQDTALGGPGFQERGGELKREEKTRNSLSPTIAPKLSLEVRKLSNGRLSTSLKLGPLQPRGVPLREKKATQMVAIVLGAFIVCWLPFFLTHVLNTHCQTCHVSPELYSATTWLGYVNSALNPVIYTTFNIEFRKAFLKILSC
# T3 sequence (P14416 whole entry, canonical isoform): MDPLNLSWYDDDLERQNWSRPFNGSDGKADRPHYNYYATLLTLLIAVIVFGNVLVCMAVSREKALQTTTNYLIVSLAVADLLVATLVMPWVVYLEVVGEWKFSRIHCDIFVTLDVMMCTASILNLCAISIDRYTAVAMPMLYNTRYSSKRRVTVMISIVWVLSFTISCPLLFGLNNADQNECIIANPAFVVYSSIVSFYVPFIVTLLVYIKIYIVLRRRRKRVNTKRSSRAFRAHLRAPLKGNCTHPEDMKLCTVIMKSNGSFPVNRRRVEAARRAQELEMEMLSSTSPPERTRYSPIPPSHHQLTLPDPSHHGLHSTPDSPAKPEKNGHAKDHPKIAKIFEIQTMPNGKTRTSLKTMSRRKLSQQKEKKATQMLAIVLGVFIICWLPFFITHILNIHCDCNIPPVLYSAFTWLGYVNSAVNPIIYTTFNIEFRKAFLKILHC
# T5 sequence (P21728 whole entry): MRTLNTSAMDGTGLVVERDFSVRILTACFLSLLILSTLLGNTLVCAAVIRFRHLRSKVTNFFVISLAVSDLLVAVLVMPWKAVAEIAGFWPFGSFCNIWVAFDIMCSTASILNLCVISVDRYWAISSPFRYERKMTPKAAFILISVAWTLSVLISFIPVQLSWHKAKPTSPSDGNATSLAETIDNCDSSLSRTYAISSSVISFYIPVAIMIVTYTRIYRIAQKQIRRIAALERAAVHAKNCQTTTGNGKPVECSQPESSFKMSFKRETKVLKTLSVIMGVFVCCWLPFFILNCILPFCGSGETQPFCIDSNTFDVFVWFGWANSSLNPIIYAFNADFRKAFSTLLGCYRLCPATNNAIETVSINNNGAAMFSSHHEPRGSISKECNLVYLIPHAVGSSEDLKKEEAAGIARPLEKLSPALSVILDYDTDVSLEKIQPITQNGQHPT
# T4 sequence (P21918 whole entry): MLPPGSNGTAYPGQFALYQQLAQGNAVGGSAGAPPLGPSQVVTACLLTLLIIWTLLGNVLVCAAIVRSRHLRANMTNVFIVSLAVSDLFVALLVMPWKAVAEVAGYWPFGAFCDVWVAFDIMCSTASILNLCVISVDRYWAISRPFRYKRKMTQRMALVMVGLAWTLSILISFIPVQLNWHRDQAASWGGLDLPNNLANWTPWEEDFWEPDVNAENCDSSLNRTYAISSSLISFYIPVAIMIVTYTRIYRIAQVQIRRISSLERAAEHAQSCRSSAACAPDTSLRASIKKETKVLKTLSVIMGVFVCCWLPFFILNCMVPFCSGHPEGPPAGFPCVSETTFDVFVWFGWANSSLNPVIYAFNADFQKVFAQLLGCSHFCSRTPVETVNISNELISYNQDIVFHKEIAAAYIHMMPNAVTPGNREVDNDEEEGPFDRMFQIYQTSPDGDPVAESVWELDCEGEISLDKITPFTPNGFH
smiles,measurement,setting,value
"CCc1cccc(-n2cc(CN3CCN(c4ccccn4)CC3)nn2)c1 [Compound 19, 1-((1-(3-Ethylphenyl)-1H-1,2,3-triazol-4-yl)methyl)-4-(pyridin-2-yl)piperazine]",half-life,[1],28 ± 0.56 min
same,half-life,[2],37.5 ± 0.68 min
"Cc1cccc(NC(=O)CN2CCC(c3ccccn3)CC2)c1 [Compound 1, reference compound]",D4R Emax (%),human D4R [3]; agonist mode,22.5 ± 4.0%
same,D4R Ant. (%),human D4R [3]; antagonist mode,81.7 ± 2.7%
same,EC50,human D3R [4]; agonist mode,> 100 µM
same,IC50,human D3R [4]; antagonist mode,> 100 µM
same,D2R Ant (%),human D2R long isoform [5],94.8 ± 2.8%
"Cc1cccc(-n2cc(CN3CCC(c4ccccc4)CC3)nn2)c1 [Compound 14, 4-Phenyl-1-((1-(m-tolyl)-1H-1,2,3-triazol-4-yl)methyl)-piperidine]",half-life,[1],13.4 ± 0.44 min
same,IC50,human D2R long isoform [6],6.09 ± 1.34 µM
same,D2R Ant (%),human D2R long isoform [6]; [11],112 ± 3%
same,inhibition at 10 µM,D5,16%
same,EC50,human D4R [7],0.0445 ± 0.0174 µM
same,IC50,human D4R [7],0.0846 ± 0.0156 µM
same,D4R Ant. (%),human D4R [7],63 ± 2%
same,Emax,human D4R [7]; read-out: D4R Emax (%),30 ± 5%
same,IC50,human D3R [8],6.3 ± 2.1 µM
same,D3R Ant. (%),human D3R [8]; [11],81.6 ±0.3%
same,EC50,human D4R [9],> 100 µM
same,D4R average activity at the highest tested dose,"human D4R [9]; agonist mode, at 100 μM (Emax ND)",ND (12% at 100 μM)
same,D4R Ant. (%),human D4R [9],93.3 ± 5.9%
same,half-life,[2],63.3 ± 2.98 min
same,Kp,"[10]; Sprague-Dawley, brain and plasma, ip, 5 mg/kg, AUC brain/plasma, read-out: brain: Plasma ratio",0.76
same,half-life,"[10]; Sprague-Dawley, brain, ip, 5 mg/kg, brain, read-out: half-life (h) brain (converted)",0.4 h
same,half-life,"[10]; Sprague-Dawley, plasma and brain, ip, 5 mg/kg, tissue not specified, read-out: half-life (converted)",≤ 0.4 h
same,half-life,"[10]; Sprague-Dawley, plasma, ip, 5 mg/kg, plasma, read-out: half-life (h) plasma (converted)",0.37 h
same,Tmax,"[10]; Sprague-Dawley, brain, read-out: Tmax (h) brain",0.25 h
same,AUC,"[10]; Sprague-Dawley, plasma",1.56 ± 0.2 µM·h
same,Cmax,"[10]; Sprague-Dawley, plasma",2890 ± 570 nM
same,Tmax,"[10]; Sprague-Dawley, plasma, read-out: Tmax (h) plasma",0.25 h
same,AUC brain,[10]; brain,1.19 ± 0.10 nmol·h/g
same,Cmax brain,"[10]; brain, 5 mg/kg",2.16 ± 0.21 nmol/g
same,peak in vivo brain concentrations expected,[10]; from brain Cmax,greater than 2.8 μM
same,inhibition at 10 µM,D1,20.2%
"O=C(CCCN1CCC2(CC1)C(=O)NCN2c1ccccc1)c1ccc(F)cc1 [Spiperone, reference compound]",D2R Ant (%),human D2R long isoform [6],100 ± 0%
same,D4R Ant. (%),human D4R [7],100 ± 0%
same,D4R Ant. (%),human D4R [9],100 ± 0%
